# Test results from publication PMC6572064, “Discovery of 2-(1-(3-(4-Chloroxyphenyl)-3-oxo- propyl)pyrrolidine-3-yl)-1H-benzo[d]imidazole-4-carboxamide: A Potent Poly(ADP-ribose) Polymerase (PARP) Inhibitor for Treatment of Cancer” (Molecules, 2019).
# Where two headings read alike, the source gives them in different places.
# Experiments:
# PARP-1 = target: T1, PARP-1 (Homo sapiens, UniProt P09874); experiment: PARP-1 inhibition assay (PARP-1 Chemiluminescent Assay Kit, BPS Bioscience); assay type: biochemical; settings: for inhibition at 0.01 µM: 10 nM compound
# T1 construct: purchased BPS Bioscience 80569
# T1 sequence (P09874 whole entry): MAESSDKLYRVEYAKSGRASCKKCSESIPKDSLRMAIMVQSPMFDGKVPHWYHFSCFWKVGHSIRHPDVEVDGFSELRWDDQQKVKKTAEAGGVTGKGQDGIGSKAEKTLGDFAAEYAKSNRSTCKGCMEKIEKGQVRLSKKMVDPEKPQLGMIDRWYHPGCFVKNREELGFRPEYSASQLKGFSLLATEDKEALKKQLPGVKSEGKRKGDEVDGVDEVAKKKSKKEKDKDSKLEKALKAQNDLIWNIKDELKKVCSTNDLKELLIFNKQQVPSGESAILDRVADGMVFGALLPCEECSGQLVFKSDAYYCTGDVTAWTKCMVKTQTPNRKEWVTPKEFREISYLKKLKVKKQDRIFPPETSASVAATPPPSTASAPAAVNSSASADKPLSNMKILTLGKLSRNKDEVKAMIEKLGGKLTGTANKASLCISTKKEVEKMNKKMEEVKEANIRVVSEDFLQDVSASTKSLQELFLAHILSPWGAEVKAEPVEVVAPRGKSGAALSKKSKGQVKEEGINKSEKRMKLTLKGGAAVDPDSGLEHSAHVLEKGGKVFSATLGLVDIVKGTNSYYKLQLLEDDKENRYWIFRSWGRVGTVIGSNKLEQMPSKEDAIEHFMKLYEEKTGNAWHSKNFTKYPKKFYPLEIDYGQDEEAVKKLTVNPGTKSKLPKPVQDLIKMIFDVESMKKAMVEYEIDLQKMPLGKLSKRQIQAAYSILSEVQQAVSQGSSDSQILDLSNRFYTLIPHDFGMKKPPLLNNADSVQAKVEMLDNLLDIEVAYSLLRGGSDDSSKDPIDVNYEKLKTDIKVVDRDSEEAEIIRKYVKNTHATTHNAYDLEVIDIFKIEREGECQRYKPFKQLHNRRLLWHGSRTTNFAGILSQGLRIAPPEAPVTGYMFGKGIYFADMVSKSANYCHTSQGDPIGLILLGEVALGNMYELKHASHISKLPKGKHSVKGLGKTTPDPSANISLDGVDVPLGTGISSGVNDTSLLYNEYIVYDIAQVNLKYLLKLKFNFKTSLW
# Protocol: (§1) The PARP-1 and PARP-2 inhibition assays were performed in outsourcing, by a CRO company, Shanghai Medicilon Inc. (Shanghai, China). […] Briefly, PARP-1 or PARP-2 biotinylated substrate was incubated with compounds or solvent control at varying concentrations and an assay buffer containing the PARP-1 or PARP-2 enzyme.
# PARP-2 = target: T2, PARP-2 (Homo sapiens, UniProt Q9UGN5); experiment: PARP-2 inhibition assay (PARP-2 Chemiluminescent Assay Kit, BPS Bioscience); assay type: biochemical; settings: for inhibition at 0.01 µM: 10 nM compound
# T2 construct: purchased BPS Bioscience 80552
# T2 sequence (Q9UGN5 whole entry): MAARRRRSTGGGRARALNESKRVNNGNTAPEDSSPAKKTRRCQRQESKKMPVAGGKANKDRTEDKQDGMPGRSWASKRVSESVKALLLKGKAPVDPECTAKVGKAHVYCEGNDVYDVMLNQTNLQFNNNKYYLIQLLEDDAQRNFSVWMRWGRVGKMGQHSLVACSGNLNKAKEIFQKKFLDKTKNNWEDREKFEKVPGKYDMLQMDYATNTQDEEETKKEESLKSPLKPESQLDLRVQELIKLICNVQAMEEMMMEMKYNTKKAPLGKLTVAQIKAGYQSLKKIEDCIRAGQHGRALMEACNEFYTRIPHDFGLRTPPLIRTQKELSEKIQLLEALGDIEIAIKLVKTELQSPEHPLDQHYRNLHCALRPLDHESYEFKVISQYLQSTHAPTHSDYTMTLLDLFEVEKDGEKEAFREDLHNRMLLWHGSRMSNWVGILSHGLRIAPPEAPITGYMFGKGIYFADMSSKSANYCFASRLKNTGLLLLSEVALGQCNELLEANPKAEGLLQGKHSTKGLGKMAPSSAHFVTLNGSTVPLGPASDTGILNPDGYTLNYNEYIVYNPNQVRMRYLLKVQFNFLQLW
# Protocol: as §1
# [1] = system: MDA-MB-436 (a BRCA-1-mutated breast cancer cell line); experiment: Cell proliferation assay, three-day, CellTiter-Glo, MDA-MB-436; assay type: cell-based; settings: for inhibition at 0.00508 µM / inhibition at 0.0152 µM / inhibition at 0.0457 µM / inhibition at 0.41 µM / inhibition at 1.23 µM / inhibition at 3.7 µM / inhibition at 11.11 µM / inhibition at 33.33 µM / inhibition at 100 µM / IC50: Homo sapiens; for inhibition at 0.00508 µM: MDA-MB-436, MDA-MB-436, Conc. 0.00508 uM; for inhibition at 0.0152 µM: MDA-MB-436, MDA-MB-436, Conc. 0.0152 uM; for inhibition at 0.0457 µM: MDA-MB-436, MDA-MB-436, Conc. 0.0457 uM; for inhibition at 0.41 µM: MDA-MB-436, MDA-MB-436, Conc. 0.41 uM; for inhibition at 1.23 µM: MDA-MB-436, MDA-MB-436, Conc. 1.23 uM; for inhibition at 3.7 µM: MDA-MB-436, MDA-MB-436, Conc. 3.70 uM; for inhibition at 11.11 µM: MDA-MB-436, MDA-MB-436, Conc. 11.11 uM; for inhibition at 33.33 µM: MDA-MB-436, MDA-MB-436, Conc. 33.33 uM; for inhibition at 100 µM: MDA-MB-436, MDA-MB-436, Conc. 100.00 uM
# Procedure, shortened: (§2)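 Luminescent ATP read-out (CellTiter-Glo, 60 min at room temperature) quantified viability after a 72 h compound exposure at 37 °C, 5% CO2. Compounds, diluted from DMSO stocks into growth medium, were added to cells plated the previous day.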
# [2] = system: CAPAN-1 (a BRCA-2-mutated pancreatic cancer cell line); experiment: Cell proliferation assay, three-day, CellTiter-Glo, CAPAN-1; assay type: cell-based; settings: for IC50 / inhibition at 0.00508 µM / inhibition at 0.0152 µM / inhibition at 0.0457 µM / inhibition at […] / inhibition at 0.41 µM / inhibition at 1.23 µM / inhibition at 3.7 µM / inhibition at 11.11 µM / inhibition at 33.33 µM / inhibition at 100 µM: Homo sapiens; for inhibition at 0.00508 µM: CAPAN-1, Conc. 0.00508 uM; for inhibition at 0.0152 µM: CAPAN-1, Conc. 0.0152 uM; for inhibition at 0.0457 µM: CAPAN-1, Conc. 0.0457 uM; for inhibition at […]: CAPAN-1, Conc. 0.14 uM; for inhibition at 0.41 µM: CAPAN-1, Conc. 0.41 uM; for inhibition at 1.23 µM: CAPAN-1, Conc. 1.23 uM; for inhibition at 3.7 µM: CAPAN-1, Conc. 3.70 uM; for inhibition at 11.11 µM: CAPAN-1, Conc. 11.11 uM; for inhibition at 33.33 µM: CAPAN-1, Conc. 33.33 uM; for inhibition at 100 µM: CAPAN-1, Conc. 100.00 uM
# Procedure, shortened: as §2
compound,measurement,setting,value
"NC(=O)c1cccc2[nH]c(C3CCN(CCC(=O)c4ccccc4)C3)nc12 (centres unmarked) [Compound 5cp, 2-(1-(3-Oxo-3-phenylpropyl)pyrrolidin-3-yl)-1H-benzo[d]imidazole-4-carboxamide]",inhibition at 0.01 µM,"PARP-1; supplement sheet, read-out: 10 nM inhibition% PAPR-1",68%
same,inhibition at 0.01 µM,PARP-1; read-out: PARP-1 Inhibition % (10 nM),68%
same,IC50,PARP-1; read-out: PARP-1 IC50,0.0036 µM
same,IC50,"PARP-1; supplement sheet, read-out: IC50 PAPR-1",0.00364 µM
same,inhibition at 0.01 µM,"PARP-2; supplement sheet, read-out: 10 nM inhibition% PAPR-2",76.8%
same,inhibition at 0.01 µM,PARP-2; read-out: PARP-2 Inhibition % (10 nM),76.7%
same,IC50,PARP-2; read-out: PARP-2 IC50,0.0032 µM
same,IC50,"PARP-2; supplement sheet, read-out: IC50 PAPR-2",0.00315 µM
same,inhibition at 0.00508 µM,"[1]; replicate 1, read-out: Inh % 1",-1.4%
same,inhibition at 0.00508 µM,"[1]; replicate 2, read-out: Inh % 2",-0.3%
same,inhibition at 0.0152 µM,"[1]; replicate 1, read-out: Inh % 1",-1.8%
same,inhibition at 0.0152 µM,"[1]; replicate 2, read-out: Inh % 2",-8.4%
same,inhibition at 0.0457 µM,"[1]; replicate 1, read-out: Inh % 1",-13.1%
same,inhibition at 0.0457 µM,"[1]; replicate 2, read-out: Inh % 2",-7%
same,inhibition at 0.41 µM,"[1]; replicate 1, read-out: Inh % 1",-6.8%
same,inhibition at 0.41 µM,"[1]; replicate 2, read-out: Inh % 2",-9.9%
same,inhibition at 1.23 µM,"[1]; replicate 1, read-out: Inh % 1",-10%
same,inhibition at 1.23 µM,"[1]; replicate 2, read-out: Inh % 2",-7.6%
same,inhibition at 3.7 µM,"[1]; replicate 1, read-out: Inh % 1",-1.8%
same,inhibition at 3.7 µM,"[1]; replicate 2, read-out: Inh % 2",-0.0749%
same,inhibition at 11.11 µM,"[1]; replicate 1, read-out: Inh % 1",7.8%
same,inhibition at 11.11 µM,"[1]; replicate 2, read-out: Inh % 2",4.7%
same,inhibition at 33.33 µM,"[1]; replicate 1, read-out: Inh % 1",91.6%
same,inhibition at 33.33 µM,"[1]; replicate 2, read-out: Inh % 2",79.7%
same,inhibition at 100 µM,"[1]; replicate 1, read-out: Inh % 1",99.8%
same,inhibition at 100 µM,"[1]; replicate 2, read-out: Inh % 2",99.4%
same,IC50,"[1]; MDA-MB-436, 72 h, CellTiter-Glo, read-out: MDA-MB-436 IC50",19.8 µM
same,IC50,"[1]; MDA-MB-436, 72 h, supplement Summary sheet, read-out: IC50",19.8 µM
same,IC50,"[1]; MDA-MB-436, curve-fit parameter list, concentrations in uM, read-out: IC50",19.8 µM
same,LogIC50,"[1]; MDA-MB-436, curve-fit parameter list, Log (uM)",1.296
same,Inh % 1,"[2]; CAPAN-1, Conc. printed as #REF!, replicate 1",18.8%
same,Inh % 2,"[2]; CAPAN-1, Conc. printed as #REF!, replicate 2",21.3%
same,LogIC50,"[2]; CAPAN-1, curve-fit output, concentration axis Log (uM)",1.19
same,IC50,"[2]; CAPAN-1, 72 h, CellTiter-Glo, read-out: CAPAN-1 IC50",15.5 µM
same,IC50,"[2]; CAPAN-1, 72 h, supplement Summary sheet, read-out: IC50",15.5 µM
same,inhibition at 0.00508 µM,"[2]; replicate 1, read-out: Inh % 1",-4.4%
same,inhibition at 0.00508 µM,"[2]; replicate 2, read-out: Inh % 2",-9.4%
same,inhibition at 0.0152 µM,"[2]; replicate 1, read-out: Inh % 1",3.3%
same,inhibition at 0.0152 µM,"[2]; replicate 2, read-out: Inh % 2",-2.6%
same,inhibition at 0.0457 µM,"[2]; replicate 1, read-out: Inh % 1",0.846%
same,inhibition at 0.0457 µM,"[2]; replicate 2, read-out: Inh % 2",-4.3%
same,inhibition at […],"[2]; replicate 1, read-out: Inh % 1",4.9%
same,inhibition at […],"[2]; replicate 2, read-out: Inh % 2",-2.2%
same,inhibition at 0.41 µM,"[2]; replicate 1, read-out: Inh % 1",-7.8%
same,inhibition at 0.41 µM,"[2]; replicate 2, read-out: Inh % 2",-11.6%
same,inhibition at 1.23 µM,"[2]; replicate 1, read-out: Inh % 1",17.2%
same,inhibition at 1.23 µM,"[2]; replicate 2, read-out: Inh % 2",-4.7%
same,inhibition at 3.7 µM,"[2]; replicate 1, read-out: Inh % 1",-2.4%
same,inhibition at 3.7 µM,"[2]; replicate 2, read-out: Inh % 2",-0.7%
same,inhibition at 11.11 µM,"[2]; replicate 1, read-out: Inh % 1",18.7%
same,inhibition at 11.11 µM,"[2]; replicate 2, read-out: Inh % 2",8.5%
same,inhibition at 33.33 µM,"[2]; replicate 1, read-out: Inh % 1",98.2%
same,inhibition at 33.33 µM,"[2]; replicate 2, read-out: Inh % 2",97.2%
same,inhibition at 100 µM,"[2]; replicate 1, read-out: Inh % 1",99.7%
same,inhibition at 100 µM,"[2]; replicate 2, read-out: Inh % 2",99.1%
same,IC50,"[2]; CAPAN-1, curve-fit output, concentration axis Log (uM), read-out: IC50",15.5 µM
